In ChEMBL document CHEMBL4673290, “Diazaspirononane Nonsaccharide Inhibitors of O-GlcNAcase (OGA) for the Treatment of Neurodegenerative Disorders” (J Med Chem, 2020):

Assay: Selectivity ratio of IC50 for inhibition of clostridium perfringens OGA to IC50 for Inhibition of human recombinant full-length OGA transcript variant 1 expressed in HEK293T cells
Assay type: cell-based

| SMILES | Ratio IC50 |
| --- | --- |
| CC(=O)Nc1ncc(CN2CC3(CCN(c4cc(C)nc5ncnn45)C3)C2)s1 | 100 |
| CC(=O)Nc1ncc(CN2CCC3(CCN(c4cc(C)nc5ncnn45)C3)C2)s1 (configuration not stated) | 100 |
